Tests used:
[1] = target: Recombinant human (rh) NPEPPS protein (Homo sapiens, UniProt P55786); test: Cell-free thermal shift (protein stability) assay; assay type: binding; settings: concentration-dependent
Procedure: Cell-free thermal shift assay: Recombinant human (rh) NPEPPS protein was diluted in Buffer A (20 mM Tris, 137 mM NaCl, pH 7.5) to a final concentration of 1.25 μM and added to a pre-chilled 384-well microplate (Biorad HSR4801). JMM001, dimethyl sulfoxide (DMSO, Sigma D2650), or NPEPPS inhibitor puromycin dihydrochloride (Sigma P8833) in 1 μl was then added to each well, mixed with gentle aspiration, and incubated with rhNPEPPS for 3 min on ice. SYPRO Orange (Invitrogen S6651) was diluted to 200× concentration in Buffer A and added to each well achieving a final dilution of 1:20, mixed with gentle aspiration. The final assay volume was 20 μl. The plate was sealed followed by a brief spin-down. The samples were analyzed on a Real-time PCR system (Roche LightCycler 480) from 20° C. to 85° C. at a continuous acquisition rate of 5 measurements/° C. and measured at excitation/emission wavelengths of 533/580 nm. Melting temperature is calculated as the lowest derivative of the fluorescence signal as a function of the temperature as previously described^7,18.

[2] = target: T1, NPEPPS (Homo sapiens, UniProt P55786); test: Cellular thermal shift assay (CETSA) in HEK293T cell lysates; assay type: binding; settings: concentration-dependent
T1 construct: endogenous in cells; host or cells: HEK293T
Procedure: Cellular thermal shift analysis (CETSA) was conducted at Pelago Bioscience. Briefly, HEK293T cells were harvested and suspended in an experimental Buffer B (20 mM HEPES, 138 mM NaCl, 5 mM KCl, 2 mM CaCl2), 1 mM MgCl2, pH7.4) at a density of 4×10^7 cells/ml. Cell suspension was lysed by three rounds of freeze-thaw cycles with liquid nitrogen and clarified at 20,000 g for 20 min at 4° C. Compounds diluted to 2× final concentration (final solution contains 1% DMSO) in Buffer B were added to equal volume of clarified cell lysates and incubated at 37° C. for 30 min with continuous rotation. 1% DMSO was used as a negative control in parallel. The treated cell lysates were then divided into 60 μl aliquots and subjected to a 12-step heat challenge between 50° C. and 62° C. for 3 min. For the concentration-dependent analyses, clarified cell lysates in 30 aliquots were mixed with an equal volume of compounds or DMSO in Buffer B at 2× intended compound concentration and incubated at 37° C. for 30 min with continuous rotation. JMM001-treated lysates were then heat challenged at 59° C. as determined from its corresponding cellular thermal shift curve. All treated lysates were immediately centrifugated at 20,000 g for 20 min at 4° C. prior to immunoblotting analysis. […] The obtained intensities were plotted as the luminescence count normalized to a relevant temperature or control count as specified.

[3] = system: rhodopsin::EGFP-MAPT transgenic zebrafish expressing the Tau^P301L mutation; test: Photoreceptor neurodegeneration in a zebrafish model of tauopathy; assay type: in vivo
Procedure: The rhodopsin::EGFP-MAPT transgenic zebrafish expressing the Tau^P301L mutation is generated and maintained as previously described^22,23. Tau^P301L expression is restricted to the rods of the retina. Photoreceptor image and quantification in central retina sections in the region of the optic nerve head is performed as previously described^2223.

[4] = system: Huntingtin; test: Huntingtin protein level in human primary cortical neurons; assay type: cell-based; settings: 50 μM, 48 hrs
Procedure: (§1) FIG. 11. Potential applications of NPEPPS enhancer JMM series on other neurodegenerative diseases. JMM001 (Cp 1) at 50 μM reduces protein levels of huntingtin (htt), SOD1, ataxin, and alpha-synuclein in human primary cortical neurons. Neurons were treated with 50 μM JMM001 or 10 uM bestatin for 48 hrs. N=3-4±SEM.

[5] = system: superoxide dismutase 1 (SOD1); test: SOD1 protein level in human primary cortical neurons; assay type: cell-based; settings: 50 μM, 48 hrs
Procedure: as §1

[6] = system: ataxin-3; test: Ataxin-3 protein level in human primary cortical neurons; assay type: cell-based; settings: 50 μM, 48 hrs
Procedure: as §1

[7] = system: α-synuclein; test: alpha-synuclein protein level in human primary cortical neurons; assay type: cell-based; settings: 50 μM, 48 hrs
Procedure: as §1

Chain of Recombinant human (rh) NPEPPS protein (P55786 whole entry): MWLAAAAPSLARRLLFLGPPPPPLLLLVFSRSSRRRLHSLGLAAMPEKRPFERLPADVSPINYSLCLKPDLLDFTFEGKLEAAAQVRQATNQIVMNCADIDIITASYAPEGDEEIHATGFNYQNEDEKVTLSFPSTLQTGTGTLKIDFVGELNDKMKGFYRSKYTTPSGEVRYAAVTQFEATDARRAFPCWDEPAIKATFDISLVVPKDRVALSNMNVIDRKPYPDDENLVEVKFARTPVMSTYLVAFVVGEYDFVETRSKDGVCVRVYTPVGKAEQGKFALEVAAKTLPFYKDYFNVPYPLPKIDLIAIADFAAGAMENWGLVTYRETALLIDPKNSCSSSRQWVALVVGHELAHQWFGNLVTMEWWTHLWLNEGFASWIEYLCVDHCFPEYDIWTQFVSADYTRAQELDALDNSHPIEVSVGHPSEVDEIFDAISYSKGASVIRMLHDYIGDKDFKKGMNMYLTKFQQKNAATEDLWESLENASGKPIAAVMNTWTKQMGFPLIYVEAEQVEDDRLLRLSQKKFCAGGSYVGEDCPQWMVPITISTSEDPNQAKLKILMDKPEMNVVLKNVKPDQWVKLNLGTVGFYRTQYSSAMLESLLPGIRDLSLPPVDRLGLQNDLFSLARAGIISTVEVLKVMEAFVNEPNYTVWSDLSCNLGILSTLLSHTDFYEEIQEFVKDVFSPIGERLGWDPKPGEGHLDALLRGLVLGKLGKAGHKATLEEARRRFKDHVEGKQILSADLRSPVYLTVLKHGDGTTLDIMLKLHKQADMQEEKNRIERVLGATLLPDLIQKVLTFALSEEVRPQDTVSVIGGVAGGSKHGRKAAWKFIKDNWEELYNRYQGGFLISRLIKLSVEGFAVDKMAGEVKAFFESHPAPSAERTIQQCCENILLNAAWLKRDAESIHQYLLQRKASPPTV
T1 sequence (P55786 whole entry): as above

## COc1ccc(CNc2nsc3ccccc23)cc1OC [JMM001]
[1]
  melting temperature of rhNPEPPS: significant, concentration-dependent increases in melting temperature
[2]
  thermal shift of NPEPPS: significant thermal shift
[3]; 0.01 and 0.03 μM, compared to DMSO control
  photoreceptor degeneration: rescue
[3]; 0.01 and 0.05 μM
  retinal photoreceptor degeneration: rescued
[4]
  protein level of Huntingtin: reduces
[5]
  protein level of SOD1: reduces
[6]
  protein level of ataxin-3: reduces
[7]
  protein level of α-synuclein: reduces
